≈ marks a conversion by molar mass, not a printed value.
Key:
Format in all cases: functional
Klebsiella pneumoniae [1] = assay: Antimicrobial activity against ESBL-positive Klebsiella pneumoniae 69036 harboring porin OmpK36V mutant gene by Etest
Klebsiella pneumoniae [2] = assay: Antimicrobial activity against ESBL-positive Klebsiella pneumoniae 50748 harboring porin OmpK36 gene by Etest
Klebsiella pneumoniae [3] = assay: Antimicrobial activity against ESBL-negative Klebsiella pneumoniae 30018 harboring porin OmpK35 gene by Etest
Klebsiella pneumoniae [4] = assay: Antimicrobial activity against ESBL-positive Klebsiella pneumoniae 17829 by Etest
Klebsiella pneumoniae [5] = assay: Antimicrobial activity against ESBL-positive Klebsiella pneumoniae 16830 harboring porin OmpK36 gene by Etest
Klebsiella pneumoniae [6] = assay: Antimicrobial activity against ESBL-positive Klebsiella pneumoniae 71697 harboring porin OmpK36V mutant gene by Etest
Klebsiella pneumoniae [7] = assay: Antimicrobial activity against ESBL-positive Klebsiella pneumoniae 26077 harboring porin OmpK36V mutant gene by Etest
Klebsiella pneumoniae [8] = assay: Antimicrobial activity against ESBL-positive Klebsiella pneumoniae 17049 harboring porin OmpK36V mutant gene by Etest
Klebsiella pneumoniae [9] = assay: Antimicrobial activity against ESBL-positive Klebsiella pneumoniae 31750 harboring porin OmpK36 gene by Etest
Klebsiella pneumoniae [10] = assay: Antimicrobial activity against ESBL-positive Klebsiella pneumoniae 17829 harboring pSHA2-encoded porin OmpK36 gene by Etest
Klebsiella pneumoniae [11] = assay: Antimicrobial activity against ESBL-positive Klebsiella pneumoniae 18567 harboring porin OmpK36V mutant gene by Etest
Klebsiella pneumoniae [12] = assay: Antimicrobial activity against ESBL-positive Klebsiella pneumoniae 29459 harboring porin OmpK36 gene by Etest
Klebsiella pneumoniae [13] = assay: Antimicrobial activity against ESBL-positive Klebsiella pneumoniae 18260 by Etest
Klebsiella pneumoniae [14] = assay: Antimicrobial activity against ESBL-positive Klebsiella pneumoniae 18918 harboring porin OmpK36V mutant gene by Etest
Klebsiella pneumoniae [15] = assay: Antimicrobial activity against ESBL-positive Klebsiella pneumoniae 287942 harboring porin OmpK36 gene by Etest
Klebsiella pneumoniae [16] = assay: Antimicrobial activity against ESBL-positive Klebsiella pneumoniae 6267 harboring porin OmpK36V mutant gene by Etest
Klebsiella pneumoniae [17] = assay: Antimicrobial activity against ESBL-positive Klebsiella pneumoniae 17830 harboring porin OmpK36V mutant gene by Etest
Klebsiella pneumoniae [18] = assay: Antimicrobial activity against ESBL-positive Klebsiella pneumoniae 29830 harboring porin OmpK36V mutant gene by Etest
Klebsiella pneumoniae [19] = assay: Antimicrobial activity against ESBL-positive Klebsiella pneumoniae 11932 harboring porin OmpK36 gene by Etest
Klebsiella pneumoniae [20] = assay: Antimicrobial activity against ESBL-positive Klebsiella pneumoniae 69928 harboring porin OmpK36V mutant gene by Etest
Klebsiella pneumoniae [21] = assay: Antimicrobial activity against ESBL-positive Klebsiella pneumoniae 17834 harboring porin OmpK36V mutant gene by Etest
Klebsiella pneumoniae [22] = assay: Antimicrobial activity against ESBL-positive Klebsiella pneumoniae 16855 harboring porin OmpK36 and OmpK35 genes by Etest
Klebsiella pneumoniae [23] = assay: Antimicrobial activity against ESBL-positive Klebsiella pneumoniae 18260 harboring pSHA2-encoded porin OmpK36 gene by Etest
Klebsiella pneumoniae [24] = assay: Antimicrobial activity against ESBL-positive Klebsiella pneumoniae 19039 harboring porin OmpK36V mutant gene by Etest
Klebsiella pneumoniae [25] = assay: Antimicrobial activity against ESBL-positive Klebsiella pneumoniae 25008 by Etest
Klebsiella pneumoniae [26] = assay: Antimicrobial activity against ESBL-negative Klebsiella pneumoniae 299332 harboring porin OmpK36 gene by Etest

Row | SMILES | MIC (Klebsiella pneumoniae [1]) | MIC (Klebsiella pneumoniae [2]) | MIC (Klebsiella pneumoniae [3]) | MIC (Klebsiella pneumoniae [4]) | MIC (Klebsiella pneumoniae [5]) | MIC (Klebsiella pneumoniae [6]) | MIC (Klebsiella pneumoniae [7]) | MIC (Klebsiella pneumoniae [8]) | MIC (Klebsiella pneumoniae [11]) | MIC (Klebsiella pneumoniae [12]) | MIC (Klebsiella pneumoniae [13]) | MIC (Klebsiella pneumoniae [14]) | MIC (Klebsiella pneumoniae [16]) | MIC (Klebsiella pneumoniae [17]) | MIC (Klebsiella pneumoniae [18]) | MIC (Klebsiella pneumoniae [19]) | MIC (Klebsiella pneumoniae [20]) | MIC (Klebsiella pneumoniae [21]) | MIC (Klebsiella pneumoniae [24]) | MIC (Klebsiella pneumoniae [25]) | also measured
1 | C[C@@H](O)[C@H]1C(=O)N2C(C(=O)O)=C(S[C@@H]3CN[C@H](C(=O)N(C)C)C3)[C@H](C)[C@H]12 [MEROPENEM] | 1 µg/mL (≈ 2.61 µM) | 0.094 µg/mL (≈ 0.245 µM) | 0.032 µg/mL (≈ 0.0834 µM) | 12 µg/mL (≈ 31.3 µM) | 0.047 µg/mL (≈ 0.123 µM) | 1.5 µg/mL (≈ 3.91 µM) | 1 µg/mL (≈ 2.61 µM) | 2 µg/mL (≈ 5.22 µM) | 1 µg/mL (≈ 2.61 µM) | 0.094 µg/mL (≈ 0.245 µM) | 12 µg/mL (≈ 31.3 µM) | 1 µg/mL (≈ 2.61 µM) | 1 µg/mL (≈ 2.61 µM) | 1.5 µg/mL (≈ 3.91 µM) | 1 µg/mL (≈ 2.61 µM) | 0.064 µg/mL (≈ 0.167 µM) | 1.5 µg/mL (≈ 3.91 µM) | 0.75 µg/mL (≈ 1.96 µM) | 1 µg/mL (≈ 2.61 µM) | 4 µg/mL (≈ 10.4 µM) | MIC (Klebsiella pneumoniae [9]): 0.064 µg/mL (≈ 0.167 µM); MIC (Klebsiella pneumoniae [10]): 1 µg/mL (≈ 2.61 µM); MIC (Klebsiella pneumoniae [15]): 0.064 µg/mL (≈ 0.167 µM); MIC (Klebsiella pneumoniae [22]): 0.064 µg/mL (≈ 0.167 µM); MIC (Klebsiella pneumoniae [23]): 1 µg/mL (≈ 2.61 µM); MIC (Klebsiella pneumoniae [26]): 0.032 µg/mL (≈ 0.0834 µM)
2 | CO[C@@]1(NC(=O)Cc2cccs2)C(=O)N2C(C(=O)O)=C(COC(N)=O)CS[C@@H]21 [CEFOXITIN] | 128 µg/mL (≈ 299 µM) | 6 µg/mL (≈ 14 µM) | 3 µg/mL (≈ 7.02 µM) | > 256 µg/mL | 3 µg/mL (≈ 7.02 µM) | 128 µg/mL (≈ 299 µM) | 128 µg/mL (≈ 299 µM) | > 256 µg/mL | > 256 µg/mL | 6 µg/mL (≈ 14 µM) | > 256 µg/mL | > 256 µg/mL | 32 µg/mL (≈ 74.9 µM) | 96 µg/mL (≈ 225 µM) | 128 µg/mL (≈ 299 µM) | 6 µg/mL (≈ 14 µM) | 48 µg/mL (≈ 112 µM) | 96 µg/mL (≈ 225 µM) | > 256 µg/mL | 64 µg/mL (≈ 150 µM) | MIC (Klebsiella pneumoniae [9]): 3 µg/mL (≈ 7.02 µM); MIC (Klebsiella pneumoniae [10]): 256 µg/mL (≈ 599 µM); MIC (Klebsiella pneumoniae [15]): 4 µg/mL (≈ 9.36 µM); MIC (Klebsiella pneumoniae [22]): 24 µg/mL (≈ 56.1 µM); MIC (Klebsiella pneumoniae [23]): 256 µg/mL (≈ 599 µM); MIC (Klebsiella pneumoniae [26]): 4 µg/mL (≈ 9.36 µM)
3 | CC(C)(O/N=C(\C(=O)N[C@@H]1C(=O)N2C(C(=O)[O-])=C(C[n+]3ccccc3)CS[C@H]12)c1csc(N)n1)C(=O)O [CEFTAZIDIME] | > 32 µg/mL | > 32 µg/mL | < 0.5 µg/mL | > 32 µg/mL | > 32 µg/mL | > 32 µg/mL | > 32 µg/mL | > 32 µg/mL | > 32 µg/mL | > 32 µg/mL | > 32 µg/mL | > 32 µg/mL | > 32 µg/mL | > 32 µg/mL | > 32 µg/mL | > 32 µg/mL | > 32 µg/mL | > 32 µg/mL | > 32 µg/mL | > 32 µg/mL | MIC (Klebsiella pneumoniae [9]): > 32 µg/mL; MIC (Klebsiella pneumoniae [10]): > 32 µg/mL; MIC (Klebsiella pneumoniae [15]): > 32 µg/mL; MIC (Klebsiella pneumoniae [22]): > 32 µg/mL; MIC (Klebsiella pneumoniae [23]): > 32 µg/mL; MIC (Klebsiella pneumoniae [26]): < 0.5 µg/mL
4 | CO/N=C(\C(=O)N[C@@H]1C(=O)N2C(C(=O)[O-])=C(C[N+]3(C)CCCC3)CS[C@H]12)c1csc(N)n1 [CEFEPIME] | > 256 µg/mL | 48 µg/mL (≈ 99.9 µM) | 0.047 µg/mL (≈ 0.0978 µM) | > 256 µg/mL | – | > 256 µg/mL | > 256 µg/mL | > 256 µg/mL | > 256 µg/mL | 96 µg/mL (≈ 200 µM) | > 256 µg/mL | > 256 µg/mL | > 256 µg/mL | > 256 µg/mL | > 256 µg/mL | 48 µg/mL (≈ 99.9 µM) | > 256 µg/mL | > 256 µg/mL | > 256 µg/mL | > 256 µg/mL | –
